Key:
RORγ-LBD = target: T1, RORγ-LBD (Homo sapiens, UniProt P51449); assay: RORγ-Ligand Binding Domain (LBD) TR-FRET Assay; assay type: biochemical;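 on TR-FRET Assay Max Response: 665/615 nm ratio relative to signal without ursolic acid or compound set at 100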
T1 construct: made in house; host or cells: SF9 cells (baculovirus)
T1 sequence (P51449 269-508 limits assumed): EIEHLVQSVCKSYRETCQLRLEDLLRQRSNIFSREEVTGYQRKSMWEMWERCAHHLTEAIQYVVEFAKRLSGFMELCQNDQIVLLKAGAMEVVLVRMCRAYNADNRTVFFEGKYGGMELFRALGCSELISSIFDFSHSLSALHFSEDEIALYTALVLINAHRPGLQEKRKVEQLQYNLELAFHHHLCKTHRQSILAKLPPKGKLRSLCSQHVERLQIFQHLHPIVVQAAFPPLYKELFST
In short: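 SF9 lysate containing His-RORγ-LBD, ~3 nM final; coactivator peptide biotin-SRC1 LXXLL, 200 nM final; ursolic acid 2 μM final; DMSO 1% final; Tris pH 7.0 buffer with KCl, EDTA, DTT, BSA. TR-FRET format.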

Gal4-RORγ-LBD = target: T2, Gal4-RORγ-LBD (Homo sapiens, UniProt P51449); assay: Gal4-RORγ Luciferase Reporter Assay in HEK-293T Cells; assay type: cell-based; settings: HEK-293 cells
T2 construct: expressed in transfected cells; host or cells: HEK-293 cells (pcDNA3.1neo plasmid)
T2 sequence (P51449 269-508 limits assumed): T1 sequence (P51449 269-508 limits assumed)
In short: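 In transfected HEK-293 cells (Gal4-RORγ-LBD, Gal4-luciferase), test agents with 2 μM ursolic acid were incubated overnight at 37 °C before luminescent detection. Values are relative to the ursolic-acid-free, compound-free signal (100).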

[1] = luciferase reporter, with 2 μM ursolic acid

| EC50 (RORγ-LBD) | EC50 (Gal4-RORγ-LBD; [1]) | EC50 (Gal4-RORγ-LBD; 2 μM ursolic acid) | Structure (SMILES) | TR-FRET Assay Max Response (RORγ-LBD) | Gal4-RORγ Assay Max Response (Gal4-RORγ-LBD; [1]) | Gal4-RORγ Assay Max Response (Gal4-RORγ-LBD; 2 μM ursolic acid) |
| --- | --- | --- | --- | --- | --- | --- |
| < 0.5 µM | < 0.5 µM | – | CCc1ccccc1-c1ccc2c(c1)N(S(=O)(=O)c1cccc(C(F)(F)F)c1)C[C@H](CCC(=O)O)O2 [Compound 2BD, (S)-3-(6-(2-ethylphenyl)-4-((3-(trifluoromethyl)phenyl)sulfonyl)-3,4-dihydro-2H-benzo[b][1,4]oxazin-2-yl)propanoic acid] | **** (The symbol “****” indicates a value greater than 200) | ** (The symbol “**” indicates a value in the range of greater than 90 to 150) | – |
| < 0.5 µM | < 0.5 µM | – | CC(C)(O)C(=O)NCC[C@H]1CN(S(=O)(=O)c2cccc(C(F)(F)F)c2)c2cc(-c3cncc(C(F)(F)F)c3)ccc2O1 [Compound 30C, (S)-2-hydroxy-2-methyl-N-(2-(4-((3-(trifluoromethyl)-phenyl)sulfonyl)-6-(5-(trifluoromethyl)pyridin-3-yl)-3,4-dihydro-2H-benzo[b][1,4]oxazin-2-yl)ethyl)propanamide] | **** (The symbol “****” indicates a value greater than 200) | * (The symbol “*” indicates a value in the range of 25 to 90) | – |
| < 0.5 µM | 0.5 to 5 µM | – | NS(=O)(=O)CCC(=O)NC[C@H]1CN(S(=O)(=O)c2cccc(C(F)(F)F)c2)c2cc(-c3cccc(C(F)(F)F)n3)ccc2O1 [Compound 30BG, (S)-3-sulfamoyl-N-((4-((3-(trifluoromethyl)phenyl)-sulfonyl)-6-(6-(trifluoro-methyl)pyridin-2-yl)-3,4-dihydro-2H-benzo[b][1,4]-oxazin-2-yl)methyl)-propanamide] | *** (The symbol “***” indicates a value in the range of greater than 150 to 200) | ** (The symbol “**” indicates a value in the range of greater than 90 to 150) | – |
| < 0.5 µM | < 0.5 µM | – | O=C(O)CC[C@H]1CN(S(=O)(=O)c2cccc(C(F)(F)F)c2)c2cc(-c3cc(F)cc(C(F)(F)F)c3)ccc2O1 [Compound 2AE, (S)-3-(6-(3-fluoro-5-(trifluoromethyl)phenyl)-4-((3-(trifluoromethyl)phenyl)-sulfonyl)-3,4-dihydro-2H-benzo[b][1,4]oxazin-2-yl)propanoic acid] | **** (The symbol “****” indicates a value greater than 200) | *** (The symbol “***” indicates a value in the range of greater than 150 to 200) | – |
| 0.5 to 5 µM | 0.5 to 5 µM | – | CS(=O)(=O)c1ccccc1-c1ccc2c(c1)N(S(=O)(=O)c1cccc(C(F)(F)F)c1)C[C@H](CCC(=O)O)O2 [Compound 2BI, (S)-3-(6-(2-(methylsulfonyl)-phenyl)-4-((3-(trifluoromethyl)-phenyl)sulfonyl)-3,4-dihydro-2H-benzo[b][1,4]oxazin-2-yl)propanoic acid] | *** (The symbol “***” indicates a value in the range of greater than 150 to 200) | ** (The symbol “**” indicates a value in the range of greater than 90 to 150) | – |
| < 0.5 µM | < 0.5 µM | – | CC(C)(C[C@H]1CN(S(=O)(=O)c2cccc(C(F)(F)F)c2)c2cc(-c3cccc(C(F)(F)F)n3)ccc2O1)C(=O)O [Compound 32E, (S)-2,2-dimethyl-3-(4-((3-(trifluoromethyl)phenyl)sulfonyl)-6-(6-(trifluoromethyl)pyridin-2-yl)-3,4-dihydro-2H-benzo[b][1,4]oxazin-2-yl)propanoic acid] | **** (The symbol “****” indicates a value greater than 200) | ** (The symbol “**” indicates a value in the range of greater than 90 to 150) | – |
| < 0.5 µM | – | < 0.5 µM | O=C(O)[C@H]1C[C@H](C[C@H]2CN(S(=O)(=O)c3cccc(C(F)(F)F)c3)c3cc(-c4cc(F)cc(OC(F)F)c4)ccc3O2)C1 [Compound 59, (1S,3r)-3-(((S)-6-(3-(difluoromethoxy)-5-fluorophenyl)-4-((3-(trifluoromethyl)phenyl)sulfonyl)-3,4-dihydro-2H-benzo[b][1,4]oxazin-2-yl)methyl)cyclobutane-1-carboxylic acid] | *** (The symbol “***” indicates a value in the range of greater than 150 to 200) | – | ** (The symbol “**” indicates a value in the range of greater than 90 to 150) |
| < 0.5 µM | < 0.5 µM | – | Cc1cc(-c2ccc3c(c2)N(S(=O)(=O)c2cccc(C(F)(F)F)c2)C[C@H](CCC(=O)O)O3)nc(N(C)C)c1 [Compound 4AN, (S)-3-(6-(6-(dimethylamino)-4-methylpyridin-2-yl)-4-((3-(trifluoromethyl)phenyl)sul-fonyl)-3,4-dihydro-2H-benzo[b][1,4]oxazin-2-yl)propanoic acid] | **** (The symbol “****” indicates a value greater than 200) | ** (The symbol “**” indicates a value in the range of greater than 90 to 150) | – |
| < 0.5 µM | 0.5 to 5 µM | – | CCOc1ncc(C(F)(F)F)cc1S(=O)(=O)N1C[C@H](CCC(=O)O)Oc2ccc(-c3cccc(Cl)c3)cc21 [Compound 6D, (S)-3-(6-(3-chlorophenyl)-4-((2-ethoxy-5-(trifluoromethyl)-pyridin-3-yl)sulfonyl)-3,4-dihydro-2H-benzo[b][1,4]-oxazin-2-yl)propanoic acid] | **** (The symbol “****” indicates a value greater than 200) | ** (The symbol “**” indicates a value in the range of greater than 90 to 150) | – |
| < 0.5 µM | 0.5 to 5 µM | – | O=C(O)[C@@H](O)CC[C@H]1CN(S(=O)(=O)c2cccc(C(F)(F)F)c2)c2cc(-c3cc(F)ccc3F)ccc2O1 [Compound 37, (S)-4-((S)-6-(2,5-difluorophenyl)-4-((3-(trifluoromethyl)phenyl)sulfonyl)-3,4-dihydro-2H-benzo[b][1,4]oxazin-2-yl)-2-hydroxybutanoic acid] | *** (The symbol “***” indicates a value in the range of greater than 150 to 200) | *** (The symbol “***” indicates a value in the range of greater than 150 to 200) | – |
| < 0.5 µM | < 0.5 µM | – | O=C(O)CC[C@H]1CN(S(=O)(=O)c2cccc(C(F)(F)F)c2)c2cc(-c3cccc(C(F)(F)F)n3)cc(F)c2O1 [Compound 22A, (S)-3-(8-fluoro-4-((3-(trifluoromethyl)phenyl)-sulfonyl)-6-(6-(trifluoromethyl)pyridin-2-yl)-3,4-dihydro-2H-benzo[b][1,4]oxazin-2-yl)propanoic acid] | **** (The symbol “****” indicates a value greater than 200) | ** (The symbol “**” indicates a value in the range of greater than 90 to 150) | – |
| < 0.5 µM | – | < 0.5 µM | Cc1cc(Cl)cc(-c2ccc3c(c2)N(S(=O)(=O)c2cccc(C(F)(F)F)c2)C[C@H](CC2(C(=O)O)CCOCC2)O3)c1 [Compound 78B, (S)-4-((6-(3-chloro-5-methyl-phenyl)-4-((3-(trifluoromethyl)-phenyl)sulfonyl)-3,4-dihydro-2H-benzo[b][1,4]oxazin-2-yl)methyl)tetrahydro-2H-pyran-4-carboxylic acid] | ** (The symbol “**” indicates a value in the range of greater than 90 to 150) | – | ** (The symbol “**” indicates a value in the range of greater than 90 to 150) |
| < 0.5 µM | < 0.5 µM | – | Cc1c(F)cc(F)cc1-c1ccc2c(c1)N(S(=O)(=O)c1cccc(C(F)(F)F)c1)C[C@H](CCC(=O)O)O2 [Compound 4AJ, (S)-3-(6-(3,5-difluoro-2-methylphenyl)-4-((3-(trifluoromethyl)phenyl)-sulfonyl)-3,4-dihydro-2H-benzo[b][1,4]oxazin-2-yl)propanoic acid] | **** (The symbol “****” indicates a value greater than 200) | ** (The symbol “**” indicates a value in the range of greater than 90 to 150) | – |
| < 0.5 µM | < 0.5 µM | – | O=C(O)CCC[C@H]1CN(S(=O)(=O)c2cccc(C(F)(F)F)c2)c2cc(-c3cc(F)cc(F)c3Cl)ccc2O1 [Compound 21D, (S)-4-(6-(2-chloro-3,5-difluorophenyl)-4-((3-(trifluoromethyl)phenyl)sulfonyl)-3,4-dihydro-2H-benzo[b][1,4]-oxazin-2-yl)butanoic acid] | *** (The symbol “***” indicates a value in the range of greater than 150 to 200) | *** (The symbol “***” indicates a value in the range of greater than 150 to 200) | – |
| < 0.5 µM | < 0.5 µM | – | COc1cc(S(=O)(=O)N2C[C@H](CCc3n[nH]c(=O)o3)Oc3ccc(-c4cccc(C(F)(F)F)n4)cc32)ccc1F [Compound 28K, (S)-5-(2-(4-((4-fluoro-3-methoxyphenyl)sulfonyl)-6-(6-(trifluoromethyl)pyridin-2-yl)-3,4-dihydro-2H-benzo[b][1,4]oxazin-2-yl)ethyl)-1,3,4-oxadiazol-2(3H)-one] | **** (The symbol “****” indicates a value greater than 200) | ** (The symbol “**” indicates a value in the range of greater than 90 to 150) | – |

From patent publication US10611740B2, “Aryl dihydro-2H-benzo[b][1,4]oxazine sulfonamide and related compounds for use as agonists of RORγ and the treatment of disease” (Lycera Corporation, priority 2015, dated 2020)
